Measured values as given in patent US20090221648A1, “COMPOSITIONS FOR TREATMENT OF COGNITIVE DISORDERS” (priority 2007, published 2009).
“Also recorded” adds a separate entry of the source. Where two headings read alike, the source gives them in different places.

Legend:
[1] = tested on: Spontaneously Hypertensive rat (SHR) pups; conditions: from literature (Fox et al. 2002, 2005; Decker et al. 2008), cited from earlier work
[2] = tested on: Spontaneously Hypertensive rat (SHR) pups; test: 5-trial inhibitory avoidance in SHR rat pups; type: in vivo; conditions: for Level of Efficacy in SHR 5-trial Inhibitory Avoidance Model: applicant's Examples 1 and 2
Method: Methods: In this behavioral paradigm, hypothesized to test aspects of both attention and impulsivity, vehicle-treated Spontaneously Hypertensive rat (SHR) pups show an impaired ability to withhold a natural response to transfer from the light into a preferred dark chamber that is paired with a mild footshock. In this study, SHR pups at postnatal day 22-23 were dosed with either vehicle or atomoxetine (0.001, 0.01, 0.1, 1.0 and 6.0 mg/kg, s.c.) 30 min prior to being tested. They were then placed into the brightly illuminated compartment of a two compartment chamber (Hamilton Kinder, San Diego, Calif.) with a retractable door between the light and dark compartments opened. After animals transferred through the open door to the dark compartment, the door closed automatically and a 0.1 mA scrambled current was applied to a 31 bar stainless steel grid floor for one second. At this point, the pup was removed and returned to its home cage and littermates for a one minute inter trial interval, and the transfer latency was noted. The same pup was returned to the bright compartment, and the process repeated for five trials. Latency to enter the dark compartment was used to evaluate learning.
Methods: In this behavioral paradigm, hypothesized to test aspects of both attention and impulsivity, vehicle-treated SHR rat pups show an impaired ability to withhold a natural response to transfer from the light into a preferred dark chamber that is paired with a mild footshock. In this study, SHR pups at postnatal day 21-25 were dosed with either vehicle or the alpha7 agonist, compound 1,2-methyl-5-[6-phenylpyridazin-3-yl]octahydropyrrolo[3,4-c]pyrrole, (0.01, 0.1, and 1.0 umol/kg, s.c.) 30 min prior to being tested. They were then placed into the brightly illuminated compartment of a two compartment chamber (Hamilton Kinder, San Diego, Calif.) with a retractable door between the light and dark compartments opened. After animals transferred through the open door to the dark compartment, the door closed automatically and a 0.1 mA scrambled current was applied to a 31 bar stainless steel grid floor for one second. At this point, the pup was removed and returned to its home cage and littermates for a one minute inter trial interval, and the transfer latency was noted. The same pup was returned to the bright compartment, and the process repeated for five trials. Latency to enter the dark compartment was used to evaluate learning. Methods for evaluating 2-methyl-5-[6-phenylpyridazin-3-yl]octahydropyrrolo[3,4-c]pyrrole also are described in Tietje, Karin R., et al., Preclinical Characterization of A-582941: A Novel α7 Neuronal Nicotinic Receptor Agonist with Broad Spectrum Cognition-Enhancing Properties, CNS Neuroscience & Therapeutics 14 (2008) 65-82 (2008).
The 5-trial inhibitory avoidance assay in spontaneously hypertensive (SHR) rat pups has been proposed as a model with predictive validity for compounds showing efficacy in attention disorders such as ADHD.

rats = rats performing an operant visual signal detection task; Rezvani et al. 2008; cited from earlier work

## Cc1cc([C@@H]2CCCN2C)on1 [ABT-418]
[1]
  Level of Efficacy in SHR 5-trial Inhibitory Avoidance Model: full efficacy and Full

## CN1CC2CN(c3ccc(-c4ccccc4)nn3)CC2C1 (stereo not drawn) [Compound 1, 2-methyl-5-[6-phenylpyridazin-3-yl]octahydropyrrolo[3,4-c]pyrrole]
[2]; SHR pups postnatal day 21-25, 0.01, 0.1 and 1.0 umol/kg s.c., 30 min prior to testing, Mann Whitney p<0.05, FIG. 2
  effect on transfer latency: significant, dose dependent effect
[2]; SHR pups postnatal day 21-25, dose of 1 μmol/kg s.c., FIG. 2
  transfer latency: significantly increasing transfer latency
[2]
  Level of Efficacy in SHR 5-trial Inhibitory Avoidance Model: full efficacy and Full

## Cc1ncccc1OC[C@@H]1CCCN1 [ABT-089]
[1]
  Level of Efficacy in SHR 5-trial Inhibitory Avoidance Model: full efficacy and Full

## Cl.O=C(N[C@@H]1CN2CCC1CC2)c1n[nH]c2ccccc12 [R3487/MEM3454]
rats
  visual sustained attention: improve visual sustained attention

## C[C@@H]1CCCN1CCc1cc2cc(-c3ccc(C#N)cc3)ccc2o1 [ABT-239]
[1]
  Level of Efficacy in SHR 5-trial Inhibitory Avoidance Model: full efficacy and Full

## COC(=O)C(c1ccccc1)C1CCCCN1 (stereo not drawn) [Methylphenidate, methylphenidate]
[1]
  Level of Efficacy in SHR 5-trial Inhibitory Avoidance Model: Full
[1]; listed as methylphenidate
  Level of Efficacy in SHR 5-trial Inhibitory Avoidance Model: fully efficacious

## CNCC[C@@H](Oc1ccccc1C)c1ccccc1 [Atomoxetine, atomoxetine]
[2]; SHR pups postnatal day 22-23, 0.001, 0.01, 0.1, 1.0 and 6.0 mg/kg s.c., 30 min prior to testing, FIG. 1
  transfer latency compared to vehicle treated animals: did not alter transfer latency
[2]
  Level of Efficacy in SHR 5-trial Inhibitory Avoidance Model: None
[2]; listed as atomoxetine
  Level of Efficacy in SHR 5-trial Inhibitory Avoidance Model: did not show efficacy; also recorded: not efficacious
